Reference: patent US20190225651A1, “COMPOUNDS FOR INDUCING TISSUE FORMATION AND USES THEREOF” (HISTIDE AG, priority 2015, published 2019)
Ends that are not written are not given here.

Assays:
[1] = test system: hMSCs; experiment: Chondrocyte differentiation of hMSCs (Sox9, Aggrecan); assay type: cell-based, human; settings: 96 hours of culture
Method: (§1) The cells were first fixed for 20 min with 4% paraformaldehyde/PBS at 4° C. After fixation, the cells were permeabilized in PBS containing 1% Triton X-100 for 15 min. Runx2, Osterix, Stro-1, Vinculin, Phalloidin, Osteopontin, Sox2, Sox9 antibodies were visualized by treating the cells with 1% (v/v) specific monoclonal antibodies for 1 hour at 37° C. Then the samples were incubated with Alexa Fluor® 568 or 647 (F(ab′)2 fragment of IgG(H+L)) during 30 min at room temperature. The cell nuclei were counterstained in 20 ng/mL DAPI for 10 min at room temperature.
Total RNA was extracted by using the RNeasy Mini Kit (Qiagen) and […] RNA was used for cDNA synthesis with AMV kit (Invitrogen®) according to the manufacturer' instructions. Semi-quantitative reverse transcriptase-polymerase chain reaction (RT-PCR) was performed with Taq DNA Polymerase (Invitrogen®) in a thermocycler (Bio-Rad®). The cDNA input was normalized to […] (HPRT). The PCR products were analyzed on 2% agarose gels. For the Aggrecan gene, the PCR bands were densitometrically quantified by using the BioCapt software (Vilber). Values were normalized to HPRT, and results were reported as relative gene expression.
hMSCs were cultured on with and without GFR-binding compounds as defined herein (SEQ ID NO: 23 and 24). […]

[2] = test system: Human umbilical-vein endothelial cells; experiment: Endothelialization, CD31 adherens junctions; assay type: cell-based; settings: 36 hours of culture
Method: Human umbilical-vein endothelial cells were cultured with and without GFR-binding compounds as defined herein (SEQ ID NO: 26). An increase in the area of the adherent junctions (CD31) was observed after 36 hours of culture with GFR-binding compounds as defined herein (FIG. 10).

[3] = Stability of non-covalent peptide coating on apatite ceramics (FITC fluorescence); assay type: physicochemical; settings: peptide bound to FITC, coated on apatite ceramics; 3, 7 or 10 days
Method: (§2) Non-covalent modifications of the materials were performed in Air Atmosphere at room temperature. The non-covalent coating strategy consisted in using a mixture of inducing peptide (SEQ ID NO: 9; concentration of 1×10^−3M) with an apatite ceramics implant or a mixture of inducing peptide (SEQ ID NO: 10; concentration of 1×10^−3M) with a type-I collagen sponge. The non-covalently coated conventional materials were characterized by using fluorescent peptides (Here SEQ ID NO: 9 and 10 covalently bound to fluorescein isothiocyanate (FITC), FIG. 3). The results shown here in FIG. 3 were obtained from experiments performed with apatite ceramics and a type-I collagen sponge. […] Indeed, after 3, 7 or 10 days, the osteogenic peptides were still coated to the ceramics or the type-I collagen (FIG. 4). The biomaterial surface was characterized by X-ray photoelectron spectroscopy (Table 1). The X-ray photoelectron spectroscopy was performed as described in the Methods section.

[4] = test system: Human umbilical-vein endothelial cells; experiment: Angiogenesis, tube-like structure formation; assay type: cell-based; settings: 18 hours of culture
Method: Human umbilical-vein endothelial cells were cultured with and without GFR-binding compounds as defined herein (SEQ ID NO: 27).

[5] = Stability of non-covalent peptide coating on type-I collagen sponge (FITC fluorescence); assay type: physicochemical; settings: peptide bound to FITC, mixed with type-I collagen sponge; 3, 7 or 10 days
Method: as §2

[6] = test system: Neurons; experiment: Neuron growth (dendrite growth, GAP43 Q-PCR); assay type: cell-based
Method: (§3) Total RNA was extracted by using the RNeasy total RNA kit (Qiagen®) according to the manufacturer's instructions. Purified total RNA was used as a template in order to make cDNA by a reverse transcription reaction (Gibco BrI®) with random primers (Invitrogen®). The cDNA was then used as a template for a real-time PCR amplification in the presence of SYBR green reagents (Bio-Rad®) by using a thermocycler (iCycler, Biorad®). Data were analyzed with the iCycler IQ™® software and compared by the ΔΔCt method. Briefly, the mean Ct value of the target gene was normalized to its averaged Ct values of the housekeeping gene (HPRT) to give a ΔCt value, which was then normalized to a control sample to obtain a ΔΔCt value. The results were obtained from two series of experiments performed in a triplicate.
Neurons were cultured with and without GFR-binding compounds as defined herein (SEQ ID NO: 38). […] To further confirm this, the expression of the Growth Associated Protein 43 (GAP43) gene was verified for neuron cells cultured with neurogenic peptides (SEQ ID NO: 38).

[7] = test system: Human epithelial cells; experiment: Scratch test, collective cell migration; assay type: cell-based; settings: 18 hours of culture
Method: Human epithelial cells were cultured with or without GFR-binding compounds as defined herein (SEQ ID NO: 28). A usual scratch test was applied (Nat Protoc 2: 329-333) on a monolayer of these epithelial cells in culture (FIG. 12a). An increase in the cell migration velocity for cells cultured with peptides was observed after 18 hours of culture. The cells migrated collectively and the communication between cells was maintained (FIG. 12b). In fact, the injury has been closed rapidly for the cells cultured with GFR-binding compounds as defined herein.

[8] = test system: osteoblast progenitors; experiment: Osteogenic differentiation of osteoblast progenitors on peptide-coated materials (Osteopontin staining, Runx2 Q-PCR); assay type: cell-based
Method: as §1, §3
The effect of these GFR-binding compounds as defined herein (SEQ ID NO: 19 and 20) on the differentiation of osteoblast progenitors was evaluated. These osteoblast progenitors were seeded onto the apatite ceramics or on type-I collagen sponge that were both coated with osteogenic peptides. […] This was seen from Osteopentin immunofluorescence staining after cell fixation as described in the Methods section (FIG. 7).
An increase in the Runx2 gene expression after 24 hours of culture (FIG. 8a) was observed by using Quantitative Real Time Polymerase Chain Reaction as described in the Methods section.

[9] = test system: hMSCs; experiment: Alkaline phosphatase activity of hMSCs on peptide-coupled type-I collagen sponge; assay type: cell-based, human; settings: 1 week of culture on type-I collagen sponge
Text: We observed an increase in the ALP activity after 1 week of culture on type-I collagen sponge coupled with GFR-binding compounds as defined herein (SEQ ID NO: 19) (FIG. 8b).

SEQ ID NO: 23: cyclic GFR-binding compound inducing cartilage regeneration; sequence not printed (VGRKPELEPLPIVYYVGRKPGGGGG; also: cyclic, ring type and places not given here)
expression of the Sox9 protein [1]: expression of the Sox9 protein was observed

SEQ ID NO: 26: cyclic GFR-binding compound inducing endothelialization; sequence not printed (RSVKVAKVRIKPHQGQHGGGGGG; also: cyclic, ring type and places not given here)
area of the adherent junctions (CD31) [2]: increase

SEQ ID NO: 9: inducing peptide, cyclic GFR-binding compound of the sequence listing; mixed with apatite ceramics; sequence not printed (WWFWGGGSAISTLYLIGKTPGGGGGG; also: cyclic, ring type and places not given here)
release of peptides over time [3]: no significant release of peptides was observed over time

SEQ ID NO: 24: cyclic GFR-binding compound inducing cartilage regeneration; sequence not printed (EPLPIVYYVGRTPKVGGGGGG; also: cyclic, ring type and places not given here)
expression of the Sox9 protein [1]: expression of the Sox9 protein was observed

SEQ ID NO: 27: vascular peptide, cyclic GFR-binding compound inducing angiogenesis; sequence not printed (SNITMQIMRIKPHQGGGGGG; also: cyclic, ring type and places not given here)
formation of tube-like structures [4]: formation of tube-like structures was observed

SEQ ID NO: 10: inducing peptide, cyclic GFR-binding compound of the sequence listing; mixed with type-I collagen sponge; sequence not printed (GTPGPGGGSAISTLYLIGKTPGGGGGG; also: cyclic, closure not given here)
release of peptides over time [5]: no significant release of peptides was observed over time

SEQ ID NO: 38: neurogenic peptide, cyclic GFR-binding compound; sequence not printed (SPISILYIDAANNGGGGGG; also: cyclic, ring type and places not given here)
establishment of cell-cell contacts via dendrite growth ([6]; 6 hours of culture): rapid establishment of cell-cell contacts via dendrite growth
expression of the Growth Associated Protein 43 (GAP43) gene ([6]; 48 hours of culture, Q-PCR): high level of expression

SEQ ID NO: 28: cyclic GFR-binding compound for wound healing; sequence not printed (EYVRKRPVQVRKIEYVRKGGGGGG; also: cyclic, ring type and places not given here)
cell migration velocity [7]: increase

SEQ ID NO: 19: osteogenic cyclic GFR-binding compound of the sequence listing; sequence not printed (WWFWGGGSAISTLYLDEYDKGGGGGG; also: cyclic, closure not given here)
differentiation into mature osteoblasts ([8]; 48 hours on coated apatite ceramics or type-I collagen sponge): differentiated into mature osteoblasts
production of extracellular matrix proteins such as Osteopontin (OPN) ([8]; versus native type-I collagen sponge or native apatite ceramics): produced extensive amounts of extracellular matrix proteins such as Osteopontin (OPN)
ALP activity [9]: increase
